Patent publication US20230085307A1, “PYRIDAZINONE COMPOUND AND HERBICIDE” (NISSAN CHEMICAL CORPORATION, priority 2019, published 2023)

Columns and labels:
late watergrass = test: Test Example 1: herbicidal activity, application before weed generation under submerged conditions (Table 16, symbol A); format: in vivo, late watergrass (Echinochloa oryzicola)
How it was run: (§1)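 Alluvial soil was flooded to 4 cm depth, weed seeds were sown mixed and 2.5-leaf rice seedlings were transplanted. On sowing day, the compound's emulsion, diluted in water to a set dose, was applied to the water surface. Plants grew at 25–30 °C and were scored 0–5 after three weeks.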

oval-leafed pondweed = test: Test Example 1: herbicidal activity, application before weed generation under submerged conditions (Table 16, symbol C); format: in vivo, oval-leafed pondweed (Monochoria vaginalis)
How it was run: as §1

barnyard grass [1] = test: Test Example 3: herbicidal effect by foliage application, Wagner pot (Table 18, symbol H); format: in vivo, barnyard grass (Echinochloa crus-galli)
How it was run: (§2)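 Plants were sown in alluvial soil held under 0.1–0.5 cm standing water and grown 14 days in a greenhouse at 25–30 °C. An emulsifiable formulation, water-diluted to the set dose, was then sprayed onto the foliage, and effects were scored three weeks later using previously defined criteria.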

Chinese sprangletop = test: Test Example 3: herbicidal effect by foliage application, Wagner pot (Table 18, symbol D); format: in vivo, chinese sprangletop (Leptochloa chinensis)
How it was run: as §2

barnyard grass [2] = test: Test Example 4: herbicidal effect by soil treatment (Table 19, symbol H); format: in vivo, barnyard grass (Echinochloa crus-galli)
How it was run: (§3)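 In this soil treatment, the formulated compound reached the seeds only through the soil: seeds were buried about 1.5 cm deep in sterilized diluvial soil, then the diluted emulsion was sprayed over the surface. After three weeks at 25° C. to 30° C. in a greenhouse, effects were graded on criteria from an earlier test.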

Italian ryegrass [3] = test: Test Example 4: herbicidal effect by soil treatment (Table 19, symbol K); format: in vivo, Italian ryegrass (Lolium multiflorum)
How it was run: as §3

windgrass [4] = test: Test Example 4: herbicidal effect by soil treatment (Table 19, symbol L); format: in vivo, windgrass (Apera spica-venti)
How it was run: as §3

lambsquarters [5] = test: Test Example 4: herbicidal effect by soil treatment (Table 19, symbol O); format: in vivo, lambsquarters (Chenopodium album)
How it was run: as §3

false cleavers [6] = test: Test Example 4: herbicidal effect by soil treatment (Table 19, symbol Q); format: in vivo, false cleavers (Galium spurium)
How it was run: as §3

persian speedwell [7] = test: Test Example 4: herbicidal effect by soil treatment (Table 19, symbol R); format: in vivo, Persian speedwell (Veronica persica)
How it was run: as §3

southern crabgrass = test: Test Example 5: herbicidal effect by foliage application, plastic box (Table 20, symbol F); format: in vivo, southern crabgrass (Digitaria ciliaris); details: foliage application, three weeks after application
How it was run: (§4)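 Plants were sown into sterilized diluvial soil under about 1.5 cm cover and kept in a greenhouse at 25° C. to 30° C. Fourteen days on, foliage received an even spray of the diluted emulsion. Herbicidal or crop effect was judged three weeks afterwards.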

green foxtail = test: Test Example 5: herbicidal effect by foliage application, plastic box (Table 20, symbol G); format: in vivo, green foxtail (Setaria viridis); details: foliage application, three weeks after application
How it was run: as §4

Italian ryegrass [8] = test: Test Example 5: herbicidal effect by foliage application, plastic box (Table 20, symbol K); format: in vivo, Italian ryegrass (Lolium multiflorum); details: foliage application, three weeks after application
How it was run: as §4

windgrass [9] = test: Test Example 5: herbicidal effect by foliage application, plastic box (Table 20, symbol L); format: in vivo, windgrass (Apera spica-venti); details: foliage application, three weeks after application
How it was run: as §4

velvetleaf = test: Test Example 5: herbicidal effect by foliage application, plastic box (Table 20, symbol M); format: in vivo, velvetleaf (Abutilon theophrasti); details: foliage application, three weeks after application
How it was run: as §4

lambsquarters [10] = test: Test Example 5: herbicidal effect by foliage application, plastic box (Table 20, symbol O); format: in vivo, lambsquarters (Chenopodium album); details: foliage application, three weeks after application
How it was run: as §4

false cleavers [11] = test: Test Example 5: herbicidal effect by foliage application, plastic box (Table 20, symbol Q); format: in vivo, false cleavers (Galium spurium); details: foliage application, three weeks after application
How it was run: as §4

persian speedwell [12] = test: Test Example 5: herbicidal effect by foliage application, plastic box (Table 20, symbol R); format: in vivo, Persian speedwell (Veronica persica); details: foliage application, three weeks after application
How it was run: as §4

[13] = amount of applied herbicide 320 g/ha
[14] = amount of applied herbicide 80 g/ha

Structure (SMILES)	Herbicidal effect, A: late watergrass (late watergrass; [13])	Herbicidal effect, C: oval-leafed pondweed (oval-leafed pondweed; [13])	herbicidal effect on barnyard grass (H) (barnyard grass [1]; 320 g/ha)	herbicidal effect on Chinese sprangletop (D) (Chinese sprangletop; 320 g/ha)	H: barnyard grass, herbicidal effect grade (barnyard grass [2]; [13])	K: Italian ryegrass, herbicidal effect grade (Italian ryegrass [3]; [13])	L: windgrass, herbicidal effect grade (windgrass [4]; [13])	O: lambsquarters, herbicidal effect grade (lambsquarters [5]; [13])	Q: false cleavers, herbicidal effect grade (false cleavers [6]; [13])	R: persian speedwell, herbicidal effect grade (persian speedwell [7]; [13])	F: southern crabgrass, herbicidal effect grade (southern crabgrass; 320 g/ha)	G: green foxtail, herbicidal effect grade (green foxtail; 320 g/ha)	K: Italian ryegrass, herbicidal effect grade (Italian ryegrass [8]; 320 g/ha)	L: windgrass, herbicidal effect grade (windgrass [9]; 320 g/ha)	M: velvetleaf, herbicidal effect grade (velvetleaf; 320 g/ha)	O: lambsquarters, herbicidal effect grade (lambsquarters [10]; 320 g/ha)	Q: false cleavers, herbicidal effect grade (false cleavers [11]; 320 g/ha)	R: persian speedwell, herbicidal effect grade (persian speedwell [12]; 320 g/ha)	further results
CCCC(=O)Oc1c(C)nn(C)c(=O)c1-c1c(-c2ccccc2OCC)sc2cc(OC)ccc12 [3-071]	5 (Herbicidal rate of 90% or more (almost completely withered))	5 (Herbicidal rate of 90% or more (almost completely withered))	5 (Herbicidal rate of 90% or more (almost completely withered))	5 (Herbicidal rate of 90% or more (almost completely withered))	3 (Herbicidal rate of 40% or more and less than 70%)	2 (Herbicidal rate of 20% or more and less than 40%)	4 (Herbicidal rate of 70% or more and less than 90%)	3 (Herbicidal rate of 40% or more and less than 70%)	5 (Herbicidal rate of 90% or more (almost completely withered))	5 (Herbicidal rate of 90% or more (almost completely withered))	5 (Herbicidal rate of 90% or more (almost completely withered))	5 (Herbicidal rate of 90% or more (almost completely withered))	4 (Herbicidal rate of 70% or more and less than 90%)	5 (Herbicidal rate of 90% or more (almost completely withered))	5 (Herbicidal rate of 90% or more (almost completely withered))	5 (Herbicidal rate of 90% or more (almost completely withered))	5 (Herbicidal rate of 90% or more (almost completely withered))	5 (Herbicidal rate of 90% or more (almost completely withered))	–
CCOc1cc(F)ccc1-c1sc2cc(OC)ccc2c1-c1c(O)c(C)nn(C)c1=O [3-078]	–	–	–	–	–	–	–	–	–	–	–	–	–	–	–	–	–	–	Herbicidal effect, A: late watergrass (late watergrass; [14]): 5 (Herbicidal rate of 90% or more (almost completely withered)); Herbicidal effect, C: oval-leafed pondweed (oval-leafed pondweed; [14]): 4 (Herbicidal rate of 70% or more and less than 90%); herbicidal effect on barnyard grass (H) (barnyard grass [1]; 80 g/ha): 5 (Herbicidal rate of 90% or more (almost completely withered)); herbicidal effect on Chinese sprangletop (D) (Chinese sprangletop; 80 g/ha): 3 (Herbicidal rate of 40% or more and less than 70%); H: barnyard grass, herbicidal effect grade (barnyard grass [2]; [14]): 0 (Herbicidal rate of 5% or less (almost no effect)); K: Italian ryegrass, herbicidal effect grade (Italian ryegrass [3]; [14]): 3 (Herbicidal rate of 40% or more and less than 70%); L: windgrass, herbicidal effect grade (windgrass [4]; [14]): 0 (Herbicidal rate of 5% or less (almost no effect)); O: lambsquarters, herbicidal effect grade (lambsquarters [5]; [14]): 4 (Herbicidal rate of 70% or more and less than 90%); Q: false cleavers, herbicidal effect grade (false cleavers [6]; [14]): 5 (Herbicidal rate of 90% or more (almost completely withered)); R: persian speedwell, herbicidal effect grade (persian speedwell [7]; [14]): 5 (Herbicidal rate of 90% or more (almost completely withered)); F: southern crabgrass, herbicidal effect grade (southern crabgrass; 80 g/ha): 5 (Herbicidal rate of 90% or more (almost completely withered)); G: green foxtail, herbicidal effect grade (green foxtail; 80 g/ha): 4 (Herbicidal rate of 70% or more and less than 90%); K: Italian ryegrass, herbicidal effect grade (Italian ryegrass [8]; 80 g/ha): 4 (Herbicidal rate of 70% or more and less than 90%); L: windgrass, herbicidal effect grade (windgrass [9]; 80 g/ha): 5 (Herbicidal rate of 90% or more (almost completely withered)); M: velvetleaf, herbicidal effect grade (velvetleaf; 80 g/ha): 5 (Herbicidal rate of 90% or more (almost completely withered)); O: lambsquarters, herbicidal effect grade (lambsquarters [10]; 80 g/ha): 5 (Herbicidal rate of 90% or more (almost completely withered)); Q: false cleavers, herbicidal effect grade (false cleavers [11]; 80 g/ha): 5 (Herbicidal rate of 90% or more (almost completely withered)); R: persian speedwell, herbicidal effect grade (persian speedwell [12]; 80 g/ha): 5 (Herbicidal rate of 90% or more (almost completely withered))
CCCC(=O)Oc1c(C)nn(C)c(=O)c1-c1c(-c2ccc(F)cc2OCC)sc2cc(OC)ccc12 [3-079]	5 (Herbicidal rate of 90% or more (almost completely withered))	5 (Herbicidal rate of 90% or more (almost completely withered))	5 (Herbicidal rate of 90% or more (almost completely withered))	4 (Herbicidal rate of 70% or more and less than 90%)	0 (Herbicidal rate of 5% or less (almost no effect))	0 (Herbicidal rate of 5% or less (almost no effect))	3 (Herbicidal rate of 40% or more and less than 70%)	3 (Herbicidal rate of 40% or more and less than 70%)	4 (Herbicidal rate of 70% or more and less than 90%)	5 (Herbicidal rate of 90% or more (almost completely withered))	5 (Herbicidal rate of 90% or more (almost completely withered))	5 (Herbicidal rate of 90% or more (almost completely withered))	4 (Herbicidal rate of 70% or more and less than 90%)	5 (Herbicidal rate of 90% or more (almost completely withered))	5 (Herbicidal rate of 90% or more (almost completely withered))	5 (Herbicidal rate of 90% or more (almost completely withered))	5 (Herbicidal rate of 90% or more (almost completely withered))	5 (Herbicidal rate of 90% or more (almost completely withered))	–
COc1ccc2c(-c3c(O)c(C)nn(C)c3=O)c(-c3ccc4c(c3)OCCO4)sc2c1 [3-082]	3 (Herbicidal rate of 40% or more and less than 70%)	4 (Herbicidal rate of 70% or more and less than 90%)	5 (Herbicidal rate of 90% or more (almost completely withered))	3 (Herbicidal rate of 40% or more and less than 70%)	0 (Herbicidal rate of 5% or less (almost no effect))	0 (Herbicidal rate of 5% or less (almost no effect))	0 (Herbicidal rate of 5% or less (almost no effect))	0 (Herbicidal rate of 5% or less (almost no effect))	5 (Herbicidal rate of 90% or more (almost completely withered))	5 (Herbicidal rate of 90% or more (almost completely withered))	0 (Herbicidal rate of 5% or less (almost no effect))	3 (Herbicidal rate of 40% or more and less than 70%)	3 (Herbicidal rate of 40% or more and less than 70%)	0 (Herbicidal rate of 5% or less (almost no effect))	3 (Herbicidal rate of 40% or more and less than 70%)	5 (Herbicidal rate of 90% or more (almost completely withered))	5 (Herbicidal rate of 90% or more (almost completely withered))	5 (Herbicidal rate of 90% or more (almost completely withered))	–
